Data: ChEMBL document CHEMBL1201862, “PubChem BioAssay data set” (2004)
Blank lines part the entries; values can stand above or below the molecule they belong to. The source made the active and inactive calls.

How the values were obtained:
H9c2 = assay: cells; type: functional, cell-based; conditions: Rattus norvegicus, H9c2, Myocardium;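 further: confirmatory concentration-response retest of ultra-high-throughput screening hits for modulation of myocardial damage; cell death induced by hydrogen peroxide oxidative stress; compound pretreatment for 60 min then peroxide exposure for 2 h; potency is for protecting the cells against peroxide damage rather than for killing them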
Large T antigen = Large T antigen (Simian virus 40, UniProt P03070); type: functional, Betapolyomavirus macacae;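 further: Confirmatory-stage PubChem screen for compounds that inhibit SV40 T antigen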
Large T antigen, sequence (P03070 whole entry): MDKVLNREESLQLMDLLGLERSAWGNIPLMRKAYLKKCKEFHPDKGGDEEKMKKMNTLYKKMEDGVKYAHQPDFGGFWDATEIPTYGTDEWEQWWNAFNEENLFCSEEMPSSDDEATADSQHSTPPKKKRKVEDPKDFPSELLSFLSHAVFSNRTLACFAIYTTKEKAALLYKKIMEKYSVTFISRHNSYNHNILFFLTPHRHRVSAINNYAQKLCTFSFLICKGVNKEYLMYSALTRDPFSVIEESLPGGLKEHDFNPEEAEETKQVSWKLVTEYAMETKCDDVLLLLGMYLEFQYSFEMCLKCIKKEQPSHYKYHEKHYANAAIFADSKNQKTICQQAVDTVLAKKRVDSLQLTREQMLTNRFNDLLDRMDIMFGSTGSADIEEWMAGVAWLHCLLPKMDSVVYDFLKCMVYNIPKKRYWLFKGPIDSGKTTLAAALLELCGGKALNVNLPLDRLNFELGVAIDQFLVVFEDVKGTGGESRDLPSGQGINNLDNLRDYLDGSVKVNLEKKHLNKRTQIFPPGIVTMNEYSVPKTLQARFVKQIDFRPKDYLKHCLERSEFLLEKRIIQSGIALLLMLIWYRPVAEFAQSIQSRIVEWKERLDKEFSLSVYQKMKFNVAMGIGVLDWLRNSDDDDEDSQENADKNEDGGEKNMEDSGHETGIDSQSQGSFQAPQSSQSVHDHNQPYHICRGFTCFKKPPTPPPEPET

[1] = molecular target: T1, Rac GTPase-activating protein 1 (Homo sapiens, UniProt Q9H0H5); assay: blockers of MgcRacGAP-driven Rac1 GTP hydrolysis – biochemical, ADP Hunter fluorescence, primary and confirmatory, confirmation (AID 624330); type: functional
T1 sequence (Q9H0H5 whole entry): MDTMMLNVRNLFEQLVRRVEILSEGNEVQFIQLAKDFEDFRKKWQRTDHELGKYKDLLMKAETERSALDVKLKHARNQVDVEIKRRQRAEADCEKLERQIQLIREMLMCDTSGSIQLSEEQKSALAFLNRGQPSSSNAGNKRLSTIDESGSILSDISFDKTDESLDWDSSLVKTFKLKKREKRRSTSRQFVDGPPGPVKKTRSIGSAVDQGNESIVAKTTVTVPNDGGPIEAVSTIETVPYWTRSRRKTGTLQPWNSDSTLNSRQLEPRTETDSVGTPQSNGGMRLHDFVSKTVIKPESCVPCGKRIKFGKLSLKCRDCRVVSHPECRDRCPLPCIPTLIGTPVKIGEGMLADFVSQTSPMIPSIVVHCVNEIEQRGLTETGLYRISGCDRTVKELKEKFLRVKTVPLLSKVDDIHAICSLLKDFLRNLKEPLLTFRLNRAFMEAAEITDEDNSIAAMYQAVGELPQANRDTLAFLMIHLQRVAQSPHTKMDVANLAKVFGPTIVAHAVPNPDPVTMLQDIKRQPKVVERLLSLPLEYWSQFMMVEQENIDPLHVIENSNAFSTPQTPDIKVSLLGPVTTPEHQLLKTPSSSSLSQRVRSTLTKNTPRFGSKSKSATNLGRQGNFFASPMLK

Leucine aminopeptidase = molecular target: T2, Leucine aminopeptidase (Plasmodium falciparum 3D7, UniProt Q8IL11); assay: P. falciparum M17LAP inhibitors, primary screen, biochemical, fluorogenic H-Leu-NHMec substrate, 1536-well (AID 1619); type: functional
T2 sequence (Q8IL11 whole entry): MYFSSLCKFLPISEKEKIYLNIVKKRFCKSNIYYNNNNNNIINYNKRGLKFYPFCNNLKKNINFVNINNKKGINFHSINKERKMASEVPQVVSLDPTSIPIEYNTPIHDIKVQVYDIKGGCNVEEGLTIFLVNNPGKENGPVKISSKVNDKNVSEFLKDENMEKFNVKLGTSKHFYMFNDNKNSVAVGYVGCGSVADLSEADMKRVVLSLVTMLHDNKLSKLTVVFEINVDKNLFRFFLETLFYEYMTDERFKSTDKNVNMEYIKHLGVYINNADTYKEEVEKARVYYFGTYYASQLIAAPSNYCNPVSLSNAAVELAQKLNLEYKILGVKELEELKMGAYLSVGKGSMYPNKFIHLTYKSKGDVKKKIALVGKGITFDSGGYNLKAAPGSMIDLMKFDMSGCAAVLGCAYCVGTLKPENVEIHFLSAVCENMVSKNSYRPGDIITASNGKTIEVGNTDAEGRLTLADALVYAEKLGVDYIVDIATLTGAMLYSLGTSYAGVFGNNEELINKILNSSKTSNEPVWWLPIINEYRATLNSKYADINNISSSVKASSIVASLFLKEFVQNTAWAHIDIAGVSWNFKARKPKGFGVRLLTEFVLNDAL

[2] = molecular target: T3, RNA-binding protein pos-1 (Caenorhabditis elegans, UniProt G5EF15); assay: disruptors of C. elegans POS-1 RNA interaction – biochemical, fluorescence polarization, dose response (AID 1964);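 further: purified POS-1 fused to maltose binding protein made in E. coli; potency of compounds blocking POS-1 binding to fluorescent RNA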
T3 sequence (G5EF15 whole entry): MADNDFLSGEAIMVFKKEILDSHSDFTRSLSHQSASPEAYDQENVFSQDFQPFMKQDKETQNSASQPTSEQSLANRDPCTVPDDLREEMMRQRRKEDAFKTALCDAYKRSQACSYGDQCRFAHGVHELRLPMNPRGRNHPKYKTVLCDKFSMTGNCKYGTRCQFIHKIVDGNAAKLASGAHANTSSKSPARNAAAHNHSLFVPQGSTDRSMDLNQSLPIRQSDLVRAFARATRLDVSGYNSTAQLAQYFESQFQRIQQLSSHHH

[3] = molecular target: T4, Zinc finger protein mex-5 (Caenorhabditis elegans, UniProt Q9XUB2); assay: potency of MEX-5 RNA-binding blockers – biochemical, C. elegans, fluorescence polarization, dose response (AID 1960)
T4 sequence (Q9XUB2 whole entry): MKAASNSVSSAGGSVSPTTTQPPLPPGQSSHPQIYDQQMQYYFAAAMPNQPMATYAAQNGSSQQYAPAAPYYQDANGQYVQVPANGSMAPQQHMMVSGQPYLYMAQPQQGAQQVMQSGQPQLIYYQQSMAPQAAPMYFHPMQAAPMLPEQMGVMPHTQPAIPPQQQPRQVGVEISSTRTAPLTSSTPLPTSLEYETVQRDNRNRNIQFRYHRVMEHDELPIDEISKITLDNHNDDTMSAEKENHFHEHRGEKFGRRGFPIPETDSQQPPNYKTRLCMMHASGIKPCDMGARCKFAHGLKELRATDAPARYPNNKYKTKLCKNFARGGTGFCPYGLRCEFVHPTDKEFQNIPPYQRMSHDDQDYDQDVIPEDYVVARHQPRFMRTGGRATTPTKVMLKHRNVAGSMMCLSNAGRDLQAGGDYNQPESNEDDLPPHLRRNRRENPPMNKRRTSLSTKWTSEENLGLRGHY

Cytochrome P450 3A4 = Cytochrome P450 3A4 (Homo sapiens, UniProt P08684);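 further: CYP3A4 tested as one member of a cytochrome P450 panel screen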
Cytochrome P450 3A4, sequence (P08684 whole entry): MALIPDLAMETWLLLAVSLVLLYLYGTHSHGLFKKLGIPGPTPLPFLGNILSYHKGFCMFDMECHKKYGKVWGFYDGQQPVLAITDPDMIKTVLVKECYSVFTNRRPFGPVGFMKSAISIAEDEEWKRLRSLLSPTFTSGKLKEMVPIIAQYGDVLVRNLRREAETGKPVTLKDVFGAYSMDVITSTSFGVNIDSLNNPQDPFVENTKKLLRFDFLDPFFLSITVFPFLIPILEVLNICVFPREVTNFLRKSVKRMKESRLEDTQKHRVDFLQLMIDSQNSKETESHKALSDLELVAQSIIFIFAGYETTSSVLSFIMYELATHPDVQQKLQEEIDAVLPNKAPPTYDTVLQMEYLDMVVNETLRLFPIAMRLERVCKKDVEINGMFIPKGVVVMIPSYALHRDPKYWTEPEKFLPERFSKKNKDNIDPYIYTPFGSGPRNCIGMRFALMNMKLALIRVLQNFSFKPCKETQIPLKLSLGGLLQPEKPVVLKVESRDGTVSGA

[4] = molecular target: T5, Ubiquitin-conjugating enzyme E2 N (Homo sapiens, UniProt P61088); type: functional;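 further: Dose-response confirmation in a TR-FRET assay detecting UBC13-driven polyubiquitin chain formation, inhibition measured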
T5 sequence (P61088 whole entry): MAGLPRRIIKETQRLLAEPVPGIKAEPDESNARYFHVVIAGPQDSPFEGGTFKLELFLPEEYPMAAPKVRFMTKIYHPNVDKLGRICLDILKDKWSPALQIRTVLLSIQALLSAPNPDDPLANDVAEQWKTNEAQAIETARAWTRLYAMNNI

[5] = reduction of Shn3 3'UTR-driven luciferase in osteoblasts – cell-based, Clone20 osteoblasts, firefly luciferase, cherry-picked, dose response (AID 624132); type: functional;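 further: firefly luciferase luminescence from reporter carrying the Shn3 3'UTR in osteoblasts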
[6] = loss of viability in HepG2 cells – cell-based, CellTiter-Glo, cherry-picked, cytotoxicity control for Shn3 inhibitor project, dose response (AID 624134); type: functional
[7] = non-specific 3'UTR reporter inhibition in Clone20-Shn3RL – cell-based, Renilla luciferase, cherry-picked, counter-screen for Shn3 inhibitor project, dose response (AID 624133); type: functional
[8] = molecular target: T6, Heat shock factor protein 1 (Mus musculus, UniProt P38532); assay: decrease of HSF1-responsive luciferase luminescence – cell-based, NIH3T3, dose retest, confirmation (AID 2382); type: functional;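 further: NIH3T3 fibroblasts with HSF1-driven luciferase reporter stressed by proteasome inhibitor MG132; luminescence from HSF1-driven luciferase expression after 8 hours of MG132 stress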
T6 sequence (P38532 whole entry): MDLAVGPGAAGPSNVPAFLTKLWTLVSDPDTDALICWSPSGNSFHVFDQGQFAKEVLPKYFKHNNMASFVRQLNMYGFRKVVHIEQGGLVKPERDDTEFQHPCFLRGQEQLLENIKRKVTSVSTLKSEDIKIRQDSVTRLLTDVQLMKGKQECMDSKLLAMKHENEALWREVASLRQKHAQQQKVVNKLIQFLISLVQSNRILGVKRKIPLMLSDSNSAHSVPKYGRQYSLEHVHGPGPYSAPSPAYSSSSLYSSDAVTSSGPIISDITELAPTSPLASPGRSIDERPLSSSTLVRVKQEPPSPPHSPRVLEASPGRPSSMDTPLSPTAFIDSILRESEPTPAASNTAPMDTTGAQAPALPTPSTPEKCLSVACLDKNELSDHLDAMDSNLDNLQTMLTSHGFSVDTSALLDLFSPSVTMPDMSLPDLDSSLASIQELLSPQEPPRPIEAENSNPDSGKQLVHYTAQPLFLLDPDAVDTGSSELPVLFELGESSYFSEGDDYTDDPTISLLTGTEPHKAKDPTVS

[9] = Luminescence Cell-Based Dose Retest to Confirm Inhibitors of Cancer Stem Cells. [Related pubchem assays (depositor defined):AID2717, AID2721]; type: functional; conditions: Homo sapiens
[10] = NIH3T3 cell viability loss – ATP luminescence, mouse fibroblasts, counter-screen, dose response (AID 2010); type: functional, cell-based;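 further: cells exposed to compound for about 90 hours before reading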
[11] = Trypanosoma cruzi growth suppression in host cells – NIH3T3 host cells, beta-gal luminescence, confirmation (AID 2044); type: functional, cell-based;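 further: intracellular parasites grown in NIH/3T3 mouse fibroblasts as host cells; luminescent beta-galactosidase reporter signal from transgenic T. cruzi replicating inside host cells; inhibitors lower the luminescence signal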

SMILES: COc1cc(-c2cc(NC=O)c3ncc(-c4ccc(C(C)=O)cc4)n3c2)ccc1O
- IC50 (H9c2): > 79 µM (inactive)

SMILES: CCOc1ccc(C2OC34CCCCC3C(C#N)(C#N)C2(C#N)C(=N)O4)cc1OC (centres undefined)
- EC50 [2]: 11.8 µM (active)
- EC50 [3]: 10.5 µM (active)

SMILES: COc1ccc(-c2cc(NC=O)c3ncc(-c4cccc(C(C)=O)c4)n3c2)cc1
- IC50 (H9c2): > 79 µM (inactive)

SMILES: CN(C)c1ccnc(Oc2ccc(Cl)cc2)c1C#N
- EC50 [2]: > 300 µM (not active)
- EC50 [3]: > 300 µM (not active)
- AC50 (Cytochrome P450 3A4): 3.16 µM (inconclusive)

SMILES: O=C(CN1C(=O)C2C3C=CC(C4CC34)C2C1=O)Nc1cnc2ccccc2c1 (centres undefined)
- IC50 (Leucine aminopeptidase): 21.7 µM (active)

SMILES: CCCCc1ccc(NC(=O)N[C@H](C(=O)O)C(C)CC)cc1 (some centres undefined)
- IC50 (Leucine aminopeptidase): 6.31 µM (active)

SMILES: COc1ccc(Nc2cc(Nc3cc(OC)c(OC)c(OC)c3)ncn2)cc1
- IC50 [4]: > 20 µM (inactive)

SMILES: O=C(COC(=O)Cc1nnc(O)c2ccccc12)Nc1ccc(Cl)cc1F
- IC50 (H9c2): > 79 µM (inactive)

SMILES: CN(c1ccccc1)S(=O)(=O)c1cccc(NC(=O)c2ccc3ncsc3c2)c1
- AC50 [5]: 17.2 µM (active)
- AC50 [6]: 53.8 µM (active)
- AC50 [7]: 13.3 µM (active)

SMILES: Brc1ccc(C2=CC(c3ccco3)n3ncnc3N2)cc1 (centres undefined)
- EC50 [2]: > 300 µM (inconclusive)
- EC50 [3]: 18.1 µM (active)
- EC50 [8]: > 195 µM (not active)

SMILES: Cc1nc2ccccn2c1C(=O)NC1CCCc2ccccc21 (centres undefined)
- AC50 [5]: 2.47 µM (active)
- AC50 [6]: 46.8 µM (active)
- AC50 [7]: 4.51 µM (active)

SMILES: COc1cccc(-c2cnc3c(NC(C)=O)cc(-c4cccc(NS(C)(=O)=O)c4)cn23)c1
- IC50 (H9c2): > 79 µM (inactive)

SMILES: COc1ccc(C(=O)/C=C/Nc2ccc([N+](=O)[O-])cc2C)cc1OC
- EC50 [2]: 54.6 µM (active)
- EC50 [3]: > 150 µM (not active)

SMILES: CC1(C)Cc2c(C#N)c(SCc3nc4ccccc4[nH]3)nc(N3CCOCC3)c2CO1
- IC50 (H9c2): 45.5 µM (inactive)

SMILES: C=C1CC2(CC(c3ccccc3)OC(c3ccccc3)C2)OC1=O (centres undefined)
- AC50 [5]: 2.49 µM (active)
- AC50 [6]: 38.4 µM (active)
- AC50 [7]: 7.45 µM (active)

SMILES: CCOC(=O)c1ccc(NC(=O)c2[nH]cnc2C(=O)NCCNC(=O)c2nc[nH]c2C(=O)Nc2ccc(C(=O)OCC)cc2)cc1
- AC50 [9]: 0.65 µM (active)
- AC50 [5]: 5.51 µM (active)
- AC50 [6]: 9.03 µM (active)

SMILES: COc1ccc(-c2ccc3[nH]c4c(c3c2)CCN2C[C@H]3[C@H](C)ON(C)[C@H]3C[C@@H]42)cc1
- IC50 (H9c2): > 79 µM (inactive)

SMILES: CCNc1nn2ccccc2c1/C=C(\C#N)C(=O)OCC
- EC50 [2]: > 300 µM (not active)
- EC50 [3]: 68.8 µM (active)

SMILES: N#Cc1c(-c2cccs2)cc(-c2cccnc2)nc1N
- IC50 (H9c2): > 79 µM (inactive)

SMILES: O=C(NNc1ccccc1)C(=O)NNS(=O)(=O)c1ccc([N+](=O)[O-])cc1
- EC50 [10]: 9.05 µM (active)
- EC50 [11]: 0.87 µM (active)
- EC50 [2]: 21.1 µM (active)
- EC50 [3]: 5.08 µM (active)

SMILES: COC(=O)c1ccc(NCC(=O)N2CCCCCC2)cc1
- IC50 (Leucine aminopeptidase): 40.3 µM (active)

SMILES: CN(C)c1ccc(N/C=C/C(=O)C(F)(F)F)cc1
- IC50 (Large T antigen): 9.98 µM (active)

SMILES: CC(C)NC(=O)C1CCN(C(=O)c2cc3sccc3n2Cc2ccc(F)cc2)CC1
- AC50 [5]: 5.05 µM (active)
- AC50 [6]: 36.6 µM (active)
- AC50 [7]: 8.2 µM (active)

More lines, now with the values ahead:

- IC50 (Large T antigen): 33.1 µM (active)
- IC50 [1]: 60.7 µM (active)
SMILES: Cc1c(N=C2NC(=O)/C(=C/c3ccc(O)cc3)S2)c(=O)n(-c2ccccc2)n1C

- IC50 (Leucine aminopeptidase): 42.5 µM (active)
SMILES: COc1cccc2c(=O)n(CC(=O)N3CCC(C)CC3)ccc12

- EC50 [2]: > 300 µM (not active)
- EC50 [3]: > 300 µM (not active)
SMILES: CCOC(=O)c1c(-c2ccccc2)csc1NC(=O)/C(C#N)=C/c1ccc(OC)c(OC)c1

- IC50 [4]: > 20 µM (inactive)
SMILES: Cc1ccc2c(c1)c(/N=N/C(=N)S)c(O)n2Cc1ccccc1

- IC50 (Leucine aminopeptidase): 30.1 µM (active)
SMILES: COc1ccc(/C(C)=C2\SC(=S)N(CCC(=O)O)C2=O)cc1

- IC50 [4]: > 20 µM (inactive)
SMILES: CCC(=O)NC(c1cc(Cl)c2ccccc2c1O)C1CC1 (centres undefined)

- EC50 [2]: > 300 µM (not active)
- EC50 [3]: > 300 µM (not active)
SMILES: O=Cc1c(-c2ccccc2)nc2ccccn12

- IC50 [4]: > 20 µM (inactive)
SMILES: CCN(CCCNC(=O)c1cc2c(-c3cccc(OC)c3)nn(C)c2s1)Cc1ccccc1

- IC50 (Large T antigen): 9.17 µM (active)
- IC50 [1]: 42.6 µM (active)
SMILES: C=C1CC(C(=O)N/N=C/c2ccc(O)cc2)C1

- IC50 (Large T antigen): > 100 µM (active)
SMILES: COc1ccc(N2CCN(C(=O)CN(c3ccccc3)S(C)(=O)=O)CC2)cc1

- EC50 [2]: > 300 µM (not active)
- EC50 [3]: > 300 µM (not active)
SMILES: O=S(=O)(c1ccccc1)N1CCC(O)(CSc2ccc(Cl)cc2)CC1
